Assay results from US10806726B2, “Methods of using indazole-3-carb oxamides and their use as Wnt/B-catenin signaling pathway inhibitors” (Samumed, LLC, priority 2016, dated 2020).

Columns and labels:
[1] = test system: primary human mesenchymal stem cells (hMSCs); assay: Tenocyte differentiation screening in hMSCs (SCXA-positive cells, 4 days); format: cell-based; conditions: 96 h, fold change over DMSO
In short: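 Primary hMSCs at passage 3–6 were treated with compound, fixed and immunostained for SCXA, and SCXA-positive cells per well were counted by imaging. Counts were normalized to DMSO wells as fold change, averaged over triplicates, and EC50 was fitted, with high-dose values manually corrected for solubility.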

[2] = test system: Wnt-responsive promoter driving firefly luciferase in SW480 cells; assay: Wnt reporter (SP5 promoter-luciferase) screening assay in SW480 cells; format: cell-based; conditions: Homo sapiens, 24-40 h, top concentration ten micromolar
In short: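 SW480 (APC-mutant colon) cells stably transduced with lentiviral SP5-promoter (eight TCF/LEF sites) firefly luciferase, ~10,000 cells/well. Signals normalized to DMSO controls for EC50 fitting.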

| SMILES | EC50 [1] [nM] | EC50 [2] [nM] |
| --- | --- | --- |
| CN1CCC(NC(=O)c2n[nH]c3ccc(-c4cncc(CN5CCCCC5)c4)cc23)CC1 [compound 87, N-(1-Methylpiperidin-4-yl)-5-(5-(piperidin-1-ylmethyl)pyridin-3-yl)-1H-indazole-3-carboxamide] | 1580 | 2440 |
| CN(C)Cc1cncc(NC(=O)c2n[nH]c3ccc(-c4cncc(CN5CCCC5)c4)cc23)c1 [compound 106, N-(5-((Dimethylamino)methyl)pyridin-3-yl)-5-(5-(pyrrolidin-1-ylmethyl)pyridin-3-yl)-1H-indazole-3-carboxamide] | 5540 | 33 |
| CN1CCN(Cc2cncc(NC(=O)c3n[nH]c4ccc(-c5cncc(CN6CCCCC6)c5)cc34)c2)CC1 [compound 124, N-(5-((4-Methylpiperazin-1-yl)methyl)pyridin-3-yl)-5-(5-(piperidin-1-ylmethyl)pyridin-3-yl)-1H-indazole-3-carboxamide] | > 100000 | 67 |
| O=C(Nc1ccc(N2CCCCC2)nc1)c1n[nH]c2ccc(-c3cncc(CN4CCCCC4)c3)cc12 [compound 126, N-(6-(Piperidin-1-yl)pyridin-3-yl)-5-(5-(piperidin-1-ylmethyl)pyridin-3-yl)-1H-indazole-3-carboxamide] | 5540 | 22 |
| O=C(Nc1cccc(F)c1)c1n[nH]c2ccc(-c3cncc(CN4CCCCC4)c3)cc12 [compound 162, N-(3-Fluorophenyl)-5-(5-(piperidin-1-ylmethyl)pyridin-3-yl)-1H-indazole-3-carboxamide] | > 100000 | 426 |
| O=C(NC1CCOCC1)c1n[nH]c2ccc(-c3cncc(CN4CCCCC4)c3)cc12 [compound 163, 5-(5-(Piperidin-1-ylmethyl)pyridin-3-yl)-N-(tetrahydro-2H-pyran-4-yl)-1H-indazole-3-carboxamide] | 5090 | 15400 |
| O=C(Nc1cncc(F)c1)c1n[nH]c2ccc(-c3cncc(CN4CCCCC4)c3)cc12 [compound 168, N-(5-Fluoropyridin-3-yl)-5-(5-(piperidin-1-ylmethyl)pyridin-3-yl)-1H-indazole-3-carboxamide] | > 100000 | 66 |
| O=C(Nc1ccc(N2CCC(O)CC2)nc1)c1n[nH]c2ccc(-c3cncc(CN4CCCCC4)c3)cc12 [compound 169, N-(6-(4-Hydroxypiperidin-1-yl)pyridin-3-yl)-5-(5-(piperidin-1-ylmethyl)pyridin-3-yl)-1H-indazole-3-carboxamide] | 4900 | 49 |
| O=C(Nc1ccc(N2CCCC2)nc1)c1n[nH]c2ccc(-c3cncc(CN4CCC(O)CC4)c3)cc12 [compound 170, 5-(5-((4-Hydroxypiperidin-1-yl)methyl)pyridin-3-yl)-N-(6-(pyrrolidin-1-yl)pyridin-3-yl)-1H-indazole-3-carboxamide] | > 100000 | 43 |
| Cc1cc(NC(=O)c2n[nH]c3ccc(-c4cncc(CN5CCCCC5)c4)cc23)cnc1N1CCCC1 [compound 172, N-(5-Methyl-6-(pyrrolidin-1-yl)pyridin-3-yl)-5-(5-(piperidin-1-ylmethyl)pyridin-3-yl)-1H-indazole-3-carboxamide] | > 100000 | 60 |
| Cc1cc(NC(=O)c2n[nH]c3ccc(-c4cncc(CN5CCCCC5)c4)cc23)cnc1N1CCC1 [compound 173, N-(6-(Azetidin-1-yl)-5-methylpyridin-3-yl)-5-(5-(piperidin-1-ylmethyl)pyridin-3-yl)-1H-indazole-3-carboxamide] | > 100000 | 36 |
| O=C(Nc1ccc(N2CCC2)nc1)c1n[nH]c2ccc(-c3cncc(CN4CCCCC4)c3)cc12 [compound 174, N-(6-(Azetidin-1-yl)pyridin-3-yl)-5-(5-(piperidin-1-ylmethyl)pyridin-3-yl)-1H-indazole-3-carboxamide] | 5540 | 48 |
| Nc1ncc(NC(=O)c2n[nH]c3ccc(-c4cncc(CN5CCCCC5)c4)cc23)cn1 [compound 176, N-(2-Aminopyrimidin-5-yl)-5-(5-(piperidin-1-ylmethyl)pyridin-3-yl)-1H-indazole-3-carboxamide] | 4650 | 30 |
| O=C(Nc1ccc(N2CCNCC2)nc1)c1n[nH]c2ccc(-c3cncc(CN4CCCCC4)c3)cc12 [compound 177, N-(6-(Piperazin-1-yl)pyridin-3-yl)-5-(5-(piperidin-1-ylmethyl)pyridin-3-yl)-1H-indazole-3-carboxamide] | 5170 | 183 |
| O=C(Nc1ccc(O)nc1)c1n[nH]c2ccc(-c3cncc(CN4CCCCC4)c3)cc12 [compound 178, N-(6-Hydroxypyridin-3-yl)-5-(5-(piperidin-1-ylmethyl)pyridin-3-yl)-1H-indazole-3-carboxamide] | > 100000 | 297 |
| O=C(Nc1ccc(C(=O)N2CCCC2)nc1)c1n[nH]c2ccc(-c3cncc(CN4CCCCC4)c3)cc12 [compound 179, 5-(5-(Piperidin-1-ylmethyl)pyridin-3-yl)-N-(6-(pyrrolidine-1-carbonyl)pyridin-3-yl)-1H-indazole-3-carboxamide] | 1120 | 30 |
| NC(=O)c1ccc(NC(=O)c2n[nH]c3ccc(-c4cncc(CN5CCCCC5)c4)cc23)cn1 [compound 180, N-(6-carbamoylpyridin-3-yl)-5-(5-(piperidin-1-ylmethyl)pyridin-3-yl)-1H-indazole-3-carboxamide] | > 100000 | 13 |
| O=C(NC1CCCC1)c1ccc(NC(=O)c2n[nH]c3ccc(-c4cccnc4)cc23)cn1 [compound 181, N-(6-(Cyclopentylcarbamoyl)pyridin-3-yl)-5-(pyridin-3-yl)-1H-indazole-3-carboxamide] | > 100000 | 38 |
| Nc1cncc(-c2ccc3[nH]nc(C(=O)Nc4ccc(N5CCCCC5)nc4)c3c2)c1 [compound 182, 5-(5-Aminopyridin-3-yl)-N-(6-(piperidin-1-yl)pyridin-3-yl)-1H-indazole-3-carboxamide] | 8040 | 35 |
| O=C(Nc1ccc(N2CCCC2)nc1)c1n[nH]c2ccc(-c3cncc(CN4CCC(F)(F)C4)c3)cc12 [compound 183, 5-(5-((3,3-Difluoropyrrolidin-1-yl)methyl)pyridin-3-yl)-N-(6-(pyrrolidin-1-yl)pyridin-3-yl)-1H-indazole-3-carboxamide] | > 100000 | 49 |
| O=C(NC1CCCC1)c1ccc(NC(=O)c2n[nH]c3ccc(-c4cncc(CN5CCCCC5)c4)cc23)cn1 [compound 184, N-(6-(Cyclopentylcarbamoyl)pyridin-3-yl)-5-(5-(piperidin-1-ylmethyl)pyridin-3-yl)-1H-indazole-3-carboxamide] | > 100000 | 40 |
| CS(=O)(=O)c1ccc(NC(=O)c2n[nH]c3ccc(-c4cncc(CN5CCCCC5)c4)cc23)cn1 [compound 185, N-(6-(Methylsulfonyl)pyridin-3-yl)-5-(5-(piperidin-1-ylmethyl)pyridin-3-yl)-1H-indazole-3-carboxamide] | 6440 | 27 |
| CN1CCN(c2cncc(-c3ccc4[nH]nc(C(=O)Nc5ccc(N6CCCC6)nc5)c4c3)c2)CC1 [compound 186, 5-(5-(4-Methylpiperazin-1-yl)pyridin-3-yl)-N-(6-(pyrrolidin-1-yl)pyridin-3-yl)-1H-indazole-3-carboxamide] | > 100000 | 460 |
| O=C(Nc1ccc(N2CCCC2)nc1)c1n[nH]c2ccc(-c3cncc(N4CCOCC4)c3)cc12 [compound 187, 5-(5-Morpholinopyridin-3-yl)-N-(6-(pyrrolidin-1-yl)pyridin-3-yl)-1H-indazole-3-carboxamide] | > 100000 | 215 |
| O=C(Nc1cccnc1)c1n[nH]c2ccc(-c3cncc(CN4CCC(F)(F)C4)c3)cc12 [compound 188, 5-(5-((3,3-Difluoropyrrolidin-1-yl)methyl)pyridin-3-yl)-N-(pyridin-3-yl)-1H-indazole-3-carboxamide] | 1210 | 9 |
| O=C(Nc1cccnc1)c1n[nH]c2ccc(-c3cncc(N4CCCC4)c3)cc12 [compound 189, N-(Pyridin-3-yl)-5-(5-(pyrrolidin-1-yl)pyridin-3-yl)-1H-indazole-3-carboxamide] | > 100000 | 85 |
| CN(C)Cc1cncc(-c2ccc3[nH]nc(C(=O)Nc4ccc(N5CCCC5)nc4)c3c2)c1 [compound 190, 5-(5-((Dimethylamino)methyl)pyridin-3-yl)-N-(6-(pyrrolidin-1-yl)pyridin-3-yl)-1H-indazole-3-carboxamide] | > 100000 | 1200 |
